Data on three molecules can be found in paper PMC10531517, “Rational Design of Novel Peptidomimetics against Influenza A Virus: Biological and Computational Studies” (International Journal of Molecular Sciences, 2023).

The subject of this series is A/Parma/24/09 H1N1 virus. Conditions: for EC50: read-out: EC50 (concentration that reduced cytopathic effect by 50%). A general note: Damage to the host cells serves as the signal in cytopathic effect assays.

Where a SMILES comes first, the peptide text is derived from it. [ ]: non-standard residue; d: D form. NMeH = CN[C@@H](Cc1c[nH]cn1)C(=O)O; Gly(N-CH2CH2OH) = O=C(O)CNCCO; NMeL = CN[C@@H](CC(C)C)C(=O)O

For the molecule `CC(=O)N[C@@H](CO)C(=O)N(C)[C@@H](CC(C)C)C(=O)N[C@@H](CC(=O)O)C(=O)N[C@@H](CS)C(N)=O` [Peptide 4, S(N-Me)LDC] (Ac-S[NMeL]DC-NH2), the “SI (ratio of CC50 and EC50)” value is >2.9 × 10^5; the EC50 was 0.085 nM.

Consider `CC(=O)N[C@@H](CO)C(=O)N[C@@H](CCCCN)C(=O)N(C)[C@@H](Cc1c[nH]cn1)C(=O)N[C@@H](CO)C(N)=O` [Peptide 9, SK(N-Me)HS] (Ac-SK[NMeH]S-NH2), for which the “SI (ratio of CC50 and EC50)” value is >1.78 × 10^3; the EC50 turned out to be 0.143 nM.

With `CC(=O)N[C@@H](CO)C(=O)N[C@@H](CCCCN)C(=O)N[C@@H](Cc1c[nH]cn1)C(=O)N(CCO)CC(N)=O` [Peptide 18, SKHNhS] (Ac-SKH[Gly(N-CH2CH2OH)]-NH2), the “SI (ratio of CC50 and EC50)” value is >5 × 10^5; the EC50 is 0.05 nM.
